Measurements: patent US8592446B2, “[1,10]-phenanthroline derivatives for the treatment of neurodegenerative or haematological diseases” (Noscira, S.A., priority 2007, dated 2013)

What was measured:
Format in all cases: cell-based
[1] = test system: SH-SY5Y human neuroblastoma cells; assay: Protection against 6-OHDA-induced cell death, condition B (no fetal bovine serum); settings: preincubated 1 hour, 6-OHDA 50 μM 24 hours, read-out: Protect. 6-OHDA (−FBS) (minimum concentration with neuroprotective effect)
Excerpt: (§1) The aim of this experiment is to determine the protective effect of the compounds of formula (1) against the toxicity caused by 6-OHDA. This toxin induces a cell death similar to which occurs in Parkinson's disease, destroying dopaminergic neurons (“MPTP and 6-hydroxydopamine-induced neurodegeneration as models for Parkinson's disease: neuroprotective strategies”; Grunblatt E, et al.; J Neurol. 2000 Apr; 247 Suppl 2:II95-102).
(§2) Two or three days before the experiment, the SH-SY5Y human neuroblastoma cells are seeded into 96-well culture plate at a density of 10^4 cells/well. Cells are exposed to the treatment with 6-OHDA and, finally, cell death is measured by LDH quantification. As positive control we used NAC.
• B) NAC and the compound of formula (I) are preincubated during 1 hour before the treatment with 6-OHDA 50 μM during 24 hours. The assay is performed in a medium without any fetal bovine serum.
(§3) For each compound the minimum concentration of compound of formula (I) at which a neuroprotective effect is shown.

[2] = test system: SH-SY5Y human neuroblastoma cells; assay: Protection against 6-OHDA-induced cell death, condition A (10% foetal bovine serum); settings: preincubated 2 hours, 6-OHDA 75 μM 16 hours, read-out: Protect. 6-OHDA (+ FBS) (minimum concentration with neuroprotective effect)
Excerpt: as §1, §2
• A) NAC and the compound of formula (I) are preincubated during 2 hours before the treatment with 6-OHDA 75 μM during 16 hours. The assay is performed in medium containing 10% Foetal bovine serum.
as §3

[3] = test system: SH-SY5Y human neuroblastoma cells; assay: Protection against hydrogen peroxide-induced cell death (LDH); settings: Homo sapiens, SH-SY5Y, compound 1 h before H2O2 100 μM, 24 h, read-out: Protect. H2O2 (minimum concentration for which protection was determined)
Protocol: The aim of this assay is to determine the neuroprotective effect of the compounds of formula (I), when human neuroblastoma cells are exposed to oxidative stress induced by hydrogen peroxide, which is highly deleterious to the cell and its accumulation causes oxidation of cellular targets such as DNA, proteins, and lipids leading to mutagenesis and cell death.
SH-SY5Y human neuroblastoma cells are seeded into 96-well culture plate at a density of 10^4 cells/well. Cells are exposed to different concentrations of the compound one hour before the treatment with H2O2 100 μM during 24 h. 5 mM N-acetylcysteine (NAC), a known anti-oxidant agent was used as a positive control, and preincubated 1 hour before the treatment with H2O2. After 24 h, the medium is removed and cells attached to the bottom of the well are lysed by adding 50 μl of Triton X-100 1% in Krebs-Hepes during 5 minutes at room temperature. For LDH release quantification, Roche cytotoxicity detection kit (Cat. No. 11 644 793 001) was used.

[4] = test system: Aβ (1-40) secretion by CHO7W cells (stably transfected with human APP751 wt cDNA); assay: Inhibition of Aβ(1-40) secretion (ELISA, cellular supernatants); settings: Homo sapiens, CHO-7W, Aβ 1-40 ELISA, read-out: Inhibition secretion beta-amyloid (minimum concentration)
Excerpt: To quantitate Aβ secretion ELISA-based method was used. The assay consists in detection of antigen by selective monoclonal anti-Aβ-antibodies at two different epitopes forming a “Sandwich-complex”, that is detected by colorimetric measure due to the binding of a secondary antibody conjugated with peroxidase that catalyses the conversion of a substrate or chromogen, TMB, into a coloured product, directly proportional to the peptide quantity in the sample. The Aβ production has been analyzed by ELISA, using a colorimetric commercial kit: Immunoassay Kit Human β Amyloid 1-40 (Biosource).
Aβ (1-40) were quantified from cellular supernatants. An APP-transfected cell line has been employed for the experiments: CHO7W (stably transfected with human APP751 wt cDNA). The cells were grown in a culture medium consisting of DMEM supplemented with 2% Fetal bovine serum, 1% penicillin-streptomycin, 1% L-glutamine and 200 μg/ml G418. Cells are seeded in 96-well culture microplate, at 5000 cells/well and treatment with different compounds at different concentrations is performed 24 hour after seeding.
OM99-2 (H-5108, Bachem), a BACE inhibitor, was used as Aβ secretion reduction positive control in all the Aβ secretion studies. The cells were treated with this compound at 3 μM concentration, culture media were collected at 24 hours.

[5] = test system: SH-SY5Y cells; assay: Neuroprotection against Aβ25-35 toxicity (LDH assay); settings: Homo sapiens, pre-treated 1 hour, 200 μM Aβ25-35 24 hours, read-out: Protect. beta-Amyloid25-35 (minimum concentration showing neuroprotection)
Protocol: In order to evaluate potential neuroprotection of compounds, SH-SY5Y cells, cultured in 96-well plates, were pre-treated for 1 hour with the compound at different concentrations and then exposed 24 hours to 200 μM Aβ25-35 (Neosystem) to induce extensive oxidative stress and cell death. The ability of the compound of protecting against this toxicity is then evaluated by measuring intracellular LDH, using the colorimetric LDH assay.
It is widely accepted that the neurotoxic activity of Aβ resides within amino acids 25-35 (see e.g. Yankner B A et al., (1990) Neurotrophic and neurotoxic effects of amyloid β protein: reversal by tachykinin neuropeptides; Science 250:279-282).

[6] = test system: SH-SY5Y human neuroblastoma cells; assay: Toxicity: LDH activity release in SH-SY5Y cells; settings: 24 h; for Maximum concentration tested for toxicity: increasing concentrations from 1 μM up to 1 mM; for Toxic at maximum concentration tested (Yes/No): at 1000 μM
Protocol: The potential effects on cell viability of the assayed compounds are assayed in SH-SY5Y human neuroblastoma cells, by quantification of Lactate dehydrogenase (LDH) activity release. SH-SY5Y human neuroblastoma cells are seeded into 96-well culture plates at 10^4 cells/well. The medium is then removed and the cells incubated with different concentrations of the compounds during 24 h. The compounds are tested at increasing concentrations starting from 1 μM, in fresh culture medium, in order to find the minimum concentration at which the compounds are toxic, up to a maximum of 1 mM. After 24 h, the medium is removed and cells attached to the bottom of the well are lysed by adding 50 μl of Krebs-Hepes; Triton X-100 1% during 5 minutes at room temperature. For LDH release quantification, the Roche cytotoxicity detection kit (Cat.
No. 11 644 793 001) is used. The LDH activity is measured by its absorbance at 492 nm with reference wavelength 620 nm.
In Table 1, for each compound the maximum concentration at which toxicity was tested is indicated in the second column. In the third column, it is indicated whether at this maximum concentration the compound was toxic or not. All the compounds, with the exception of Compound 3, resulted non-toxic at the concentration for which activity was found, in most of the cases even at a 1000-fold concentration. Thus, the compounds may be considered non-toxic.

| Structure (SMILES) | minimal effective concentration [1] [µM] | minimal effective concentration [2] [µM] | minimal effective concentration [3] [µM] | minimal effective concentration [4] [µM] | minimal effective concentration [5] [µM] | Maximum concentration tested for toxicity [6] [µM] | Toxic at maximum concentration tested (Yes/No) [6] |
| --- | --- | --- | --- | --- | --- | --- | --- |
| COC(=O)CSc1cc(C=NO)nc2c1ccc1cccnc12 [Compound 14, [2-(Hydroxyimino-methyl)-[1,10]phenanthrolin-4-ylsulfanyl]-acetic acid methyl ester] | 0.5 | 0.5 | 0.05 | 0.01 | 10 | 1000 | Yes |
| ON=Cc1cc(SCC(F)(F)F)c2ccc3cccnc3c2n1 [Compound 13, 4-(2,2,2-Trifluoro-ethylsulfanyl)-[1,10]phenanthroline-2-carbaldehyde oxime] | 5 | 0.5 | 0.5 | 10 | 5 | 1000 | No |
